*1 amine or outer side, *2 acyl side, *3 side chain or, on linkers, in order; H or OH if unused. Where a SMILES comes first, the peptide text is derived from it. Bridges are numbered along the chain shown (N, C = ends). [ ]: non-standard residue; d: D form. X1 = CC(C)CCCCCCCCC[C@H](CC(=O)[*:1])O[*:2]

Data set [1] is described as follows: Surfactant activity of the lipopeptides (CMC, surface tension). To be noted: at the CMC 0.0025%. Type of data set: physicochemical. The text has this: After extracting the lipopeptides following the method of Cooper et al. 1981, a yield of 0.12 g/l and 0.10 g/l of culture was obtained for strains XT1 and XT2, respectively. The type strain produced 0.6 g/l. Lipopeptide production has not been described in the case of the Bacillus strain of the commercial preparation Botrybel. More specifically, in addition to surfactin, strain XT1 object of the present invention produces other surfactant lipopeptides such as fengycin and lichenysin.
The cellular dry weight (CDW) of strains XT1, XT2 and of type strain is 2.7 g/l, 2.5 g/l and 2.9 g/l, respectively. In the case of strain XT1, the critical micelle concentration (CMC) is 0.0025% (0.025 mg/ml); a surface tension of 29.7 mN/m was obtained with this value. In the case of the surfactin produced by B. subtilis and marketed by Sigma®, values of 26.7 mN/m at the same CMC were obtained. In other words, strain XT1 produces very active lipopeptides surfactants showing activity similar to the surfactin available on the market.

The test system of a further data set is Anthocoris nemoralis. Briefly: Mortality by ingestion in Anthocoris nemoralis. To be noted: observed 6 days; cultures 5×10^8 CFU/ml, surfactants and Tween 80 1/1000; water control 10.

Usually surface tension stands for the work needed to enlarge the surface of a liquid by unit area. `CC(C)CCCCCCCCC[C@@H]1CC(=O)N[C@@H](CCC(=O)O)C(=O)N[C@@H](CC(C)C)C(=O)N[C@H](CC(C)C)C(=O)N[C@@H](C(C)C)C(=O)N[C@@H](CC(=O)O)C(=O)N[C@H](CC(C)C)C(=O)N[C@@H](CC(C)C)C(=O)O1` [surfactin] (EL[dL]VD[dL]L; linker N-C via X1) returned a surface tension in data set [1] of 26.7 mN/m.

In the case of Tween 80, the Mortality by ingestion with Anthocoris nemoralis was 5 percentage of individuals.

Values taken from patent US20210076683A1, “USE OF BACILLUS METHYLOTROPHICUS AS A STIMULANT OF PLANT GROWTH AND BIOLOGICAL CONTROL MEANS, AND ISOLATES OF SAID SPECIES” (UNIVERSIDAD DE GRANADA, priority 2014, published 2021).
